Experimental data reported in US10149887B2, “Peptides and peptidomimetics in combination with t cell activating and/or checkpoint inhibiting agents for cancer treatment” (CanBas Co., Ltd., priority 2015, dated 2018).
Square brackets hold non-standard residues; d marks the D form. Ends that are not written are not given here. Peptide text beside a SMILES is read from it. dPhe(F5) = N[C@H](Cc1c(F)c(F)c(F)c(F)c1F)C(=O)O; dBpa = N[C@H](Cc1ccc(C(=O)c2ccccc2)cc1)C(=O)O; dCha = N[C@H](CC1CCCCC1)C(=O)O; Aun = NCCCCCCCCCCC(=O)O

Legend:
Jurkat cells [1] = assay: Side effect of peptide used alone: Jurkat cell cycle disturbance (flow cytometry); assay type: cell-based; details: dose that produced Jurkat cell cycle disturbance, peptide alone
Method: Cell-cycle analysis The cell cycle status of the cells treated with bleomycin or adriamcin were analyzed by flow cytometry as described by Kawabe (1997) Nature 385:454-458. In brief, two million cells were re-suspended and incubated in 200 μl Krishan's solution (0.1% Sodium citrate, 50 μg/ml PI, 20 μg/ml RNase A and 0.5% NP-40) for 1 hr at 4° C. and analyzed by a flow cytometry, FACScan™ (Beckton Dickinson, Mountain View, Calif.) with the program CELLQuest™ (Beckton Dickinson).
(§1) The “Appearance of side effect when used alone” indicates the peptide/peptidomimetic dose that produced Jurkat cell cycle disturbance, i.e., the appearance of significant amounts of SubG1 cells (dead cells) or cells in which the DNA content of each varies more than usual. […] The “G2 abrogating dose” indicates the peptide/peptidomimetic dose with 40 μg/ml bleomycine that produced detectable G2 checkpoint abrogation activity following treatment for 24 hours. The “Appearance of side effect when used with colchicine” indicates the peptide/peptidomimetic dose with 5 μg/ml colchicine that produced Jurkat cell cycle disturbance following treatment for 24 hours.

Jurkat cells [2] = assay: M phase checkpoint abrogation / non specific toxicity, colchicine treated Jurkat cells; assay type: cell-based; details: dose with 5 μg/ml colchicine that produced Jurkat cell cycle disturbance, 24 hours
Method: Flow cytometry analysis of M phase checkpoint abrogation by the compounds was performed using human T cell leukemia Jurkat cell line treated with colchicine (5 μg/ml or 0.5 μg/ml) and various doses of peptide/peptidomimetics for 24 hr (FIG. 12). The DNA of the cells was stained and analyzed by flow cytometry as described above.
as §1
A comparison between G2 checkpoint abrogating activity and non specific toxicity (M checkpoint abrogation) by CB501 was performed. In brief, Jurkat cells were treated with 40 μg/ml bleomycin or 0.5 μg/ml colchicine for G2 checkpoint abrogating activity and non specific toxicity, respectively. The DNA amount in each of the treated cells was analyzed by flow cytometry, as previously described.

Jurkat cells [3] = assay: G2 checkpoint abrogation, flow cytometry of bleomycin treated Jurkat cells; assay type: cell-based, human; details: Jurkat cells with bleomycin 40 μg/ml
Method: Flow cytometry analysis of G2 checkpoint abrogation was performed using human leukemia derived Jurkat cell line. In brief, cultured cells were treated with various doses of peptide/peptidomimetic and 40 μg/ml bleomycine for 24 hr. The DNA of the cells was stained with propidium iodide and analyzed by flow cytometry.
The G2 checkpoint abrogating activity of various arginine rich sequences at different doses on cells treated with bleomycine was studied. Briefly, peptides were added to culture medium of Jurkat cells with bleomycin (40 μg/ml) at 0.2 μg/ml, 0.39 μg/ml, 0.78 μg/ml, 1.56 μg/ml, 3.125 μg/ml, 6.25 μg/ml, 12.5 μg/ml, 25 μg/ml and 50 μg/ml. Cells were subsequently harvested after 24 hours, stained with Krishan's solution, and analyzed with flow cytometry as previously described.

Row | Molecule | Appearance of side effect when used alone (Jurkat cells [1]) | Appearance of side effect when used with Colchicine (Jurkat cells [2]) | G2 checkpoint abrogating activity (in words) (Jurkat cells [3])
1 | N=C(N)NCCC[C@@H](NC(=O)[C@@H](CCCCN)NC(=O)[C@@H](CCCCN)NC(=O)[C@@H](CCCNC(=N)N)NC(=O)[C@@H](CCCNC(=N)N)NC(=O)[C@@H](CCC(N)=O)NC(=O)[C@@H](CCCNC(=N)N)NC(=O)[C@@H](CCCNC(=N)N)NC(=O)[C@@H](CCCNC(=N)N)NC(=O)[C@@H](CC1CCCCC1)NC(=O)[C@@H](Cc1c(F)c(F)c(F)c(F)c1F)NC(=O)CCCCCCCCCCN)C(=O)NCC(=O)N[C@H](Cc1ccc(O)cc1)C(=O)O [CBP463, (1-aminoundecanoic acid)(d-Phe-2,3,4,5,6-F)(d-Cha)(d-Arg)(d-Arg)(d-Arg)(d-Gln)(d-Arg)(d-Arg)(d-Lys)(d-Lys)(d-Arg)(1-Gly)(d-Tyr)] (H-[Aun][dPhe(F5)][dCha][dR][dR][dR][dQ][dR][dR][dK][dK][dR]G[dY]-OH; N-terminus and C-terminus assumed) | >6.25 µM | >6.25 µM | 
2 | (d-Arg)(d-Arg)(d-Arg)(d-Arg)(d-Bpa)(d-Arg)(d-Trp)(d-Arg)(d-Phe-2,3,4,5,6-F)(d-Cha) ([dR][dR][dR][dR][dBpa][dR][dW][dR][dPhe(F5)][dCha]) [CBP702] |  |  | retain G2 checkpoint abrogating activity comparable to other peptides having significant G2 checkpoint abrogating activity
3 | (d-Arg)(d-Arg)(d-Arg)(d-Bpa)(d-Arg)(d-Arg)(d-Arg)(d-Phe-2,3,4,5,6-F)(d-Cha) ([dR][dR][dR][dBpa][dR][dR][dR][dPhe(F5)][dCha]) [CBP703] |  |  | retain G2 checkpoint abrogating activity comparable to other peptides having significant G2 checkpoint abrogating activity
4 | (d-Arg)(d-Arg)(d-Arg)(d-Bpa)(d-Arg)(d-Trp)(d-Arg)(d-Phe-2,3,4,5,6-F)(d-Cha) ([dR][dR][dR][dBpa][dR][dW][dR][dPhe(F5)][dCha]) [CBP701] |  |  | retain G2 checkpoint abrogating activity comparable to other peptides having significant G2 checkpoint abrogating activity
5 | (d-Arg)(d-Arg)(d-Bpa)(d-Arg)(d-Arg)(d-Arg)(d-Phe-2,3,4,5,6-F)(d-Cha) ([dR][dR][dBpa][dR][dR][dR][dPhe(F5)][dCha]) [CBP700] |  |  | retain G2 checkpoint abrogating activity comparable to other peptides having significant G2 checkpoint abrogating activity
